Measured values taken from ChEMBL document CHEMBL1909046, “DrugMatrix in vitro pharmacology data”.

How the values were obtained:
Estrogen receptor = molecular target: T1, Estrogen receptor (Homo sapiens, UniProt P03372); experiment: biochemical
T1 sequence (P03372 whole entry): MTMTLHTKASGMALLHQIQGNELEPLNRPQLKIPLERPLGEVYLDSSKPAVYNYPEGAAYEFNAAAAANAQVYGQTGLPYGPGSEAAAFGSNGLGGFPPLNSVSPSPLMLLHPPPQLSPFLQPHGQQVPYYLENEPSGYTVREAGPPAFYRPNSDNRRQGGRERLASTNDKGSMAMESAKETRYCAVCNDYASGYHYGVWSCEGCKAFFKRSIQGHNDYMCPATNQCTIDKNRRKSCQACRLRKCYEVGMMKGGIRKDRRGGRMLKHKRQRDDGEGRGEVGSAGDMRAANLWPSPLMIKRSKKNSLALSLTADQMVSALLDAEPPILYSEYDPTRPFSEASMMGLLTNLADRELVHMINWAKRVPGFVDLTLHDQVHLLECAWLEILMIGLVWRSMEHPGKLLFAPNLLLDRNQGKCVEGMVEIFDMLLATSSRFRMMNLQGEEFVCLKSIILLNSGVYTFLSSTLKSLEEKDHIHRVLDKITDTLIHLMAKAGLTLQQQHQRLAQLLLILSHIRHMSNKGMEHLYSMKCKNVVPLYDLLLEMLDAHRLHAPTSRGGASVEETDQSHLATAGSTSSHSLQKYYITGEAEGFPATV

Cytochrome P450 2C9 = Cytochrome P450 2C9 (Homo sapiens, UniProt P11712)
Chain of Cytochrome P450 2C9 (P11712 whole entry): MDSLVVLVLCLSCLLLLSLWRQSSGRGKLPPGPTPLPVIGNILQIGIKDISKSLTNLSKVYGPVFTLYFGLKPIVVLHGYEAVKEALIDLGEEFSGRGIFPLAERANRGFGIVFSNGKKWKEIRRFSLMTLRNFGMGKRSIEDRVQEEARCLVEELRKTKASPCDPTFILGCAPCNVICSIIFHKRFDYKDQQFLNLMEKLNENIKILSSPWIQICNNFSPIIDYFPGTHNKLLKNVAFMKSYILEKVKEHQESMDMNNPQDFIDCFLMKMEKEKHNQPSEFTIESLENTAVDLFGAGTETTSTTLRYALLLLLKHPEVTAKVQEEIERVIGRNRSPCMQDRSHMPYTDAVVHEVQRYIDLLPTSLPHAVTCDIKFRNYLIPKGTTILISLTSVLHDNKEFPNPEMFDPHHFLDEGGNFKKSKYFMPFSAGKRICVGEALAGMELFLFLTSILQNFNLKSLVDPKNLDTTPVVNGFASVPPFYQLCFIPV

Glucocorticoid receptor = molecular target: T2, Glucocorticoid receptor (Homo sapiens, UniProt P04150); experiment: biochemical
T2 sequence (P04150 whole entry): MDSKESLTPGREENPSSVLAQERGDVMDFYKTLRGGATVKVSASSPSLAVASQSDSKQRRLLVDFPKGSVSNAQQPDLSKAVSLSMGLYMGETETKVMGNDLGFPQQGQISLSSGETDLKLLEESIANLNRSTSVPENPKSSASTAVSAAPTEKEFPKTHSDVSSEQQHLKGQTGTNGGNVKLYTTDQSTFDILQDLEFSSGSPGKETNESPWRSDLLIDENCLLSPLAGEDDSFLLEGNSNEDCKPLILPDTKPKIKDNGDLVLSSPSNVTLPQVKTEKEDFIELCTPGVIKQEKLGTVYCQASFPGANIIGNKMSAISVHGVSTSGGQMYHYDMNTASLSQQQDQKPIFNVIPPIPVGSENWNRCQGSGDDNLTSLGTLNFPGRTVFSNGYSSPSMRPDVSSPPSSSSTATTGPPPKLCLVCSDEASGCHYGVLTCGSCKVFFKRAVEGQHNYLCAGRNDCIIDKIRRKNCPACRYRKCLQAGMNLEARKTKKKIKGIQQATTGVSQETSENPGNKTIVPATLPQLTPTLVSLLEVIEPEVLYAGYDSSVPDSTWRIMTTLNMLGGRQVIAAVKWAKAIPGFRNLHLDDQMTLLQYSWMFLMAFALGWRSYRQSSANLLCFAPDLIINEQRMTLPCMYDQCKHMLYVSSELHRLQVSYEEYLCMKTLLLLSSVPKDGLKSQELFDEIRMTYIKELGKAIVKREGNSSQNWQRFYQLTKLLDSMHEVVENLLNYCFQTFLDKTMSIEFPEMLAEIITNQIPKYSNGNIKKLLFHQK

[1] = molecular target: Voltage-gated inwardly rectifying potassium channel KCNH2 (Homo sapiens, UniProt Q12809)
Chain of Voltage-gated inwardly rectifying potassium channel KCNH2 (Q12809 whole entry): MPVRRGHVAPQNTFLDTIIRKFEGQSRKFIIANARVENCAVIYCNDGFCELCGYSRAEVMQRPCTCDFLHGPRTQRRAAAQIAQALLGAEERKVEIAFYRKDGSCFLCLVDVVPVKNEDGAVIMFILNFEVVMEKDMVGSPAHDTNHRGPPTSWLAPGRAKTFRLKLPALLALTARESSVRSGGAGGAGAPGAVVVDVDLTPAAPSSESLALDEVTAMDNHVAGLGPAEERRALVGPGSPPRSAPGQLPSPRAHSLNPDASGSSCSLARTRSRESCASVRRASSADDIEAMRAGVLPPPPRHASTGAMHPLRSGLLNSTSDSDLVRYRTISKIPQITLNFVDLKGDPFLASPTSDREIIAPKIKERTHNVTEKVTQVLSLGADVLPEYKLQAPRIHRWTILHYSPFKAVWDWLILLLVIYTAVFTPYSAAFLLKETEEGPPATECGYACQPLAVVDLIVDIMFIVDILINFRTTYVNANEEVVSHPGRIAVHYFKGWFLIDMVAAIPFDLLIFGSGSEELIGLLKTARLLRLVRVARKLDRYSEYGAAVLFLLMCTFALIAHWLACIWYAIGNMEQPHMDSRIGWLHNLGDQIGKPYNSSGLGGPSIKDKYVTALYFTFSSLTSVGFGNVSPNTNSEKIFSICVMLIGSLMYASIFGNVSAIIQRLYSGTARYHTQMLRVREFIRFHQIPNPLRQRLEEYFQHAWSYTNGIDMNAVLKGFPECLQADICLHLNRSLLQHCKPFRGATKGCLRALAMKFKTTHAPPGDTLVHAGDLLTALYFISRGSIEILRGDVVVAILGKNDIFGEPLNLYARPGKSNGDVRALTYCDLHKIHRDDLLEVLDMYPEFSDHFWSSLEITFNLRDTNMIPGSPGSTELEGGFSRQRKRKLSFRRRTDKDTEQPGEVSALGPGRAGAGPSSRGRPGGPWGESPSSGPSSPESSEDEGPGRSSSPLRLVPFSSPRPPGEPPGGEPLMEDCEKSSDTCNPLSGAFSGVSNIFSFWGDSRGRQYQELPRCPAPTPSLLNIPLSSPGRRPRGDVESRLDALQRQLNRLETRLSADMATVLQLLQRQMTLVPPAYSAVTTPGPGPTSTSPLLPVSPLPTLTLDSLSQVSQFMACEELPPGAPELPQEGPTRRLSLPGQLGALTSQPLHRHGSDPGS

Row | Compound | IC50 (Glucocorticoid receptor) [nM] | Ki (Glucocorticoid receptor) [nM] | IC50 [1] [nM] | Ki [1] [nM] | also measured
1 | CCCCCCCCCc1ccc(O)cc1 [4-NONYLPHENOL] | – | – | – | – | IC50 (Estrogen receptor): 377 nM; Ki (Estrogen receptor): 108 nM
2 | O=C1CCc2cc(OCCCCc3nnnn3C3CCCCC3)ccc2N1 [CILOSTAZOL] | – | – | – | – | IC50 (Cytochrome P450 2C9): 10000 nM
3 | CC(=O)OCC(=O)[C@@]1(OC(C)=O)[C@@H](C)C[C@H]2[C@@H]3C[C@H](F)C4=CC(=O)C=C[C@]4(C)[C@@]3(F)[C@@H](O)C[C@@]21C [DIFLORASONE DIACETATE] | 6.4 | 2.91 | – | – | –
4 | Cc1c(-c2ccccc2)oc2c(C(=O)OCCN3CCCCC3)cccc2c1=O [FLAVOXATE] | – | – | 24100 | 19800 | –
5 | CC(=O)[C@@]1(O)CC[C@H]2[C@@H]3C[C@H](C)C4=CC(=O)C=C[C@]4(C)[C@@]3(F)[C@@H](O)C[C@@]21C [FLUOROMETHOLONE] | 3.47 | 1.58 | – | – | –
6 | COc1ccc(CN(CCN(C)C)c2ccccn2)cc1 [PYRILAMINE] | – | – | 12600 | 10300 | –
